From BindingDB's records for doi:10.1021/jm00126a013 (University of California, 1989)

Each compound was assayed against Vesicular acetylcholine transporter (Torpedo californica) (assay: Inhibition of active transport of [3H]acetylcholine using purified Torpedo californica synaptic vesicles).
COc1ccccc1N1CCN(C2CC3CCCCC3CC2O)CC1 (configuration not stated) showed an IC50 of 300 nM.

Molecular target: Vesicular acetylcholine transporter (Torpedo californica)
Experiment: as above
Remark: another data set of the same source
Work on O=C(CCCCC1SCC2NC(=O)NC21)NCC(=O)NCC(=O)Nc1cccc2c1CC(N1CCC(c3ccccc3)CC1)C(O)C2 (configuration not stated) yielded an IC50 of 200 nM. Work on O[C@@H]1[C@H](O)CCC[C@H]1N1CCC(c2ccccc2)CC1 yielded an IC50 of 100 nM. In the case of OC1CCCCC1N1CCCCC1 (configuration not stated), the IC50 is reported as > 40000 nM. For CCC(O)C[N+]1(C)CCC(c2ccccc2)CC1 (configuration not stated), the IC50 was 2000 nM. For CC1(c2ccccc2)CCCN(C2CCCCC2O)C1 (configuration not stated), the IC50 was 4000 nM. With OC1CCCCC1N1CC=C(c2ccc(Cl)cc2)CC1 (configuration not stated) the IC50 was 200 nM. OC1CCCCC1N1C=NC(c2ccccc2)C1 (configuration not stated) was tested, and the IC50 was 40000 nM. Nc1cccc2c1CC(N1CCC(c3ccccc3)CC1)C(O)C2 (configuration not stated) showed an IC50 of 100 nM. O=C(CCCCC1SCC2NC(=O)NC21)Nc1cccc2c1CC(N1CCC(c3ccccc3)CC1)C(O)C2 (configuration not stated) gave an IC50 of 100 nM. CC(=O)OCC[N+]1(C)CCC(c2ccccc2)CC1 (configuration not stated) gave an IC50 of 4000 nM. In the case of OC1CCCCC1N1CCN(c2ccccc2)CC1 (configuration not stated), the IC50 is reported as 300 nM. CN(CCCc1ccccc1)C1CCCCC1O (configuration not stated) gave an IC50 of 2000 nM. For C[N+]1(CCO)CCC(c2ccccc2)CC1 (configuration not stated), the IC50 was 8000 nM. For Nc1ccc(C2CCN(C3CCCCC3O)CC2)cc1 (configuration not stated), the IC50 was 500 nM. With CC(=O)OC1CCCCC1N1CCC(c2ccccc2)CC1 (configuration not stated) the IC50 was 2000 nM. For CN(CCc1ccccc1)C1CCCCC1O (configuration not stated), the IC50 was 20000 nM. Compound CNc1ccc(C2CCN(C3CCCCC3O)CC2)cc1 (configuration not stated) has an IC50 of 400 nM. Work on O=C(O)CCC(=O)Nc1cccc2c1CC(N1CCC(c3ccccc3)CC1)C(O)C2 (configuration not stated) yielded an IC50 of 50 nM. OC1CCCCC1N1CC=C(c2ccccc2)CC1 (configuration not stated) showed an IC50 of 200 nM. OC1CN(C2CCCCC2O)CCC1c1ccccc1 (configuration not stated) gave an IC50 of 200 nM. In the case of COc1ccc2c3c1OC1C(O)C=CC4C(C2)N(C2CCCCC2O)CCC341 (configuration not stated), the IC50 is reported as 80000 nM. With OC1CCCCC1NC1CCc2ccccc21 (configuration not stated) the IC50 was 3000 nM. CC(C)(C)[C@H]1CC[C@@H](N2CCC(c3ccccc3)CC2)[C@H](O)C1 gave an IC50 of 90 nM. Compound O=C(O)CCC(=O)Nc1cccc2c1CC(O)C(N1CCC(c3ccccc3)CC1)C2 (configuration not stated) has an IC50 of 500 nM. CC(=O)Nc1ccc(I)c2c1CC(N1CCC(c3ccccc3)CC1)C(O)C2 (configuration not stated) showed an IC50 of 300 nM. O=c1[nH]c2ccccc2n1C1CCN(C2CCCCC2O)CC1 (configuration not stated) showed an IC50 of 1000 nM. O=C(Nc1cccc2c1CC(O)C(N1CCC(c3ccccc3)CC1)C2)C(F)(F)F (configuration not stated) gave an IC50 of 2000 nM. For CN(C)c1ccc(C2CCN(C3CCCCC3O)CC2)cc1 (configuration not stated), the IC50 was 300 nM. CCC(CN1CCC(c2ccccc2)CC1)OC(C)=O (configuration not stated) showed an IC50 of 800 nM. CCC(O)CN1CCC(c2ccccc2)CC1 (configuration not stated) was tested, and the IC50 was 300 nM. CC1(O)CCCC[C@H]1N1CCC(c2ccccc2)CC1 (some centres not stated) showed an IC50 of 6000 nM. For OC1CCCCC1N1CCC(c2ccc(Cl)cc2)CC1 (configuration not stated), the IC50 was 100 nM. CC1CN(C2CCCCC2O)CCN1c1ccccc1 (configuration not stated) gave an IC50 of 300 nM. OC1CCCCC1N1CCN(Cc2ccc3c(c2)OCO3)CC1 (configuration not stated) showed an IC50 of 300 nM. For OC1CCCCC1N1CCC(CCC2CCN(C3CCCCC3O)CC2)CC1 (configuration not stated), the IC50 was > 1000 nM. SC1CCCCC1N1CCC(c2ccccc2)CC1 (configuration not stated) gave an IC50 of 4000 nM. Cc1ccc(C)c(N2CCN(C3CCCCC3O)CC2)c1 (configuration not stated) gave an IC50 of 100 nM. Work on CC(=O)Nc1ccc(C2CCN(C3CCCCC3O)CC2)cc1 (configuration not stated) yielded an IC50 of 20000 nM. For O=C1CCC2(O)C3Cc4ccc(O)c5c4C2(CCN3C2CCCCC2O)C1O5 (configuration not stated), the IC50 was > 100000 nM. CC(=O)OCCN1CCC(c2ccccc2)CC1 gave an IC50 of 9000 nM. CN(Cc1ccccc1)C1CCCCC1O (configuration not stated) was tested, and the IC50 was 10000 nM. With OC1CCCCC1N1CCC(Cc2ccccc2)CC1 (configuration not stated) the IC50 was 300 nM. CC(=O)OC1CCCCC1[N+]1(C)CCC(c2ccccc2)CC1 (configuration not stated) was tested, and the IC50 was 5000 nM. With O=[N+]([O-])c1ccc(C2CCN(C3CCCCC3O)CC2)c([N+](=O)[O-])c1 (configuration not stated) the IC50 was 300 nM. In the case of OC1CCCCC1N1CCC(CCCc2ccccc2)CC1 (configuration not stated), the IC50 is reported as 70 nM. CC(=O)Nc1cccc2c1CC(O)C(N1CCC(c3ccccc3)CC1)C2 (configuration not stated) was tested, and the IC50 was > 2000 nM. O[C@H]1[C@H](N2CCC(c3ccccc3)CC2)CCC[C@H]1c1ccccc1 gave an IC50 of 600 nM. Compound OC[C@H]1CC[C@@H](O)[C@H](N2CCC(c3ccccc3)CC2)C1 has an IC50 of 800 nM. In the case of OC1CCCCC1N1CCC(CCCC2CCN(C3CCCCC3O)CC2)CC1 (configuration not stated), the IC50 is reported as 200 nM. In the case of OC1CCCCC1N1CC2CCC(CC2)C1 (configuration not stated), the IC50 is reported as 20000 nM. For O=[N+]([O-])c1ccc(C2CCN(C3CCCCC3O)CC2)cc1 (configuration not stated), the IC50 was 100 nM. OC1C2CCC1C(N1CCC(c3ccccc3)CC1)C2 (configuration not stated) showed an IC50 of 10000 nM. Nc1cccc2c1CC(O)C(N1CCC(c3ccccc3)CC1)C2 (configuration not stated) was tested, and the IC50 was 300 nM. Compound OC1CCCC1N1CCC(c2ccccc2)CC1 (configuration not stated) has an IC50 of 2000 nM. O=C(c1ccccc1)N1CCN(C2CCCCC2O)CC1 (configuration not stated) was tested, and the IC50 was 10000 nM. O=C1CCCCC1N1CCC(c2ccccc2)CC1 (configuration not stated) showed an IC50 of 40000 nM. For C[N+]1(C2CCCCC2O)CCC(c2ccccc2)CC1 (configuration not stated), the IC50 was > 1000 nM. With OCCN1CCC(c2ccccc2)CC1 the IC50 was 10000 nM. Compound CO[C@H]1CCC[C@@H](N2CCC(c3ccccc3)CC2)[C@@H]1O has an IC50 of 2000 nM. Compound Cc1ccccc1N1CCN(C2CCCCC2O)CC1 (configuration not stated) has an IC50 of 100 nM. For OC1CCCCC1N1CCC(C2CCN(C3CCCCC3O)CC2)CC1 (configuration not stated), the IC50 was 200 nM. COc1ccc(N2CCN(C3CCCCC3O)CC2)cc1 (configuration not stated) gave an IC50 of 300 nM. O[C@@H]1CCCC[C@H]1CN1CCC(c2ccccc2)CC1 was tested, and the IC50 was 2000 nM. Work on O[C@H]1CCCC[C@H]1CN1CCC(c2ccccc2)CC1 yielded an IC50 of 1000 nM. Work on O=C(CCC(=O)Nc1cccc2c1CC(N1CCC(c3ccccc3)CC1)C(O)C2)NNC(=O)CCC(=O)Nc1cccc2c1CC(N1CCC(c3ccccc3)CC1)C(O)C2 (configuration not stated) [N-[6-Hydroxy-7-(4-phenyl-piperidin-1-yl)-5,6,7,8-tetrahydro-naphthalen-1-yl]-4-(N'-{3-[6-hydroxy-7-(4-phenyl-piperidin-1-yl)-5,6,7,8-tetrahydro-naphthalen-1-ylcarbamoyl]-propionyl}-hydrazino)-4-oxo-butyramide] yielded an IC50 of 1000 nM. With CC(C)(C)[C@H]1CC[C@@H](O)[C@H](N2CCC(c3ccccc3)CC2)C1 [trans-(4S)-4-tert-butyl-2-(4-phenylpiperidin-1-yl)cyclohexanol] the IC50 was 20 nM.
